Measured values reported in article PMC11480954, “Molecular determinants of resurgent sodium currents mediated by Navβ4 peptide and A-type FHFs” (Frontiers in Molecular Neuroscience, 2024).
Where “and” joins values, the source holds several entries; their conditions need not be identical. Identical values can stand only once. Like-named read-outs stand apart in the source and are kept apart here. No end group written: not given here.

Key:
[1] = tested on: Nav1.7 N395K; settings: ref Sheets et al., 2007; cited from earlier work
Source text: The receptor site of local anesthetics is formed by multiple residues within DIS6, DIIIS6 and DIVS6. […] Several studies have implicated F1764 and Y1771 in Nav1.2 (corresponding to F1737 and Y1744 in Nav1.7) as playing a major effect on local anesthetics-induced inhibition of VGSCs ([Ragsdale et al., 1996]). We recently reported that mutation of an asp ...

[2] = molecular target: T1, human Nav1.7 R1599P (rpNav1.7) (Homo sapiens, UniProt Q15858, R1610P); assay: Gating properties (steady-state activation, inactivation, INaP), rpNav1.7; format: cell-based
T1 construct: expressed in transfected cells; host or cells: HEK293 cells, transient transfection with pcDNA3.1 construct
T1 sequence (Q15858 1-1977 isoform Q15858-3 R1599P): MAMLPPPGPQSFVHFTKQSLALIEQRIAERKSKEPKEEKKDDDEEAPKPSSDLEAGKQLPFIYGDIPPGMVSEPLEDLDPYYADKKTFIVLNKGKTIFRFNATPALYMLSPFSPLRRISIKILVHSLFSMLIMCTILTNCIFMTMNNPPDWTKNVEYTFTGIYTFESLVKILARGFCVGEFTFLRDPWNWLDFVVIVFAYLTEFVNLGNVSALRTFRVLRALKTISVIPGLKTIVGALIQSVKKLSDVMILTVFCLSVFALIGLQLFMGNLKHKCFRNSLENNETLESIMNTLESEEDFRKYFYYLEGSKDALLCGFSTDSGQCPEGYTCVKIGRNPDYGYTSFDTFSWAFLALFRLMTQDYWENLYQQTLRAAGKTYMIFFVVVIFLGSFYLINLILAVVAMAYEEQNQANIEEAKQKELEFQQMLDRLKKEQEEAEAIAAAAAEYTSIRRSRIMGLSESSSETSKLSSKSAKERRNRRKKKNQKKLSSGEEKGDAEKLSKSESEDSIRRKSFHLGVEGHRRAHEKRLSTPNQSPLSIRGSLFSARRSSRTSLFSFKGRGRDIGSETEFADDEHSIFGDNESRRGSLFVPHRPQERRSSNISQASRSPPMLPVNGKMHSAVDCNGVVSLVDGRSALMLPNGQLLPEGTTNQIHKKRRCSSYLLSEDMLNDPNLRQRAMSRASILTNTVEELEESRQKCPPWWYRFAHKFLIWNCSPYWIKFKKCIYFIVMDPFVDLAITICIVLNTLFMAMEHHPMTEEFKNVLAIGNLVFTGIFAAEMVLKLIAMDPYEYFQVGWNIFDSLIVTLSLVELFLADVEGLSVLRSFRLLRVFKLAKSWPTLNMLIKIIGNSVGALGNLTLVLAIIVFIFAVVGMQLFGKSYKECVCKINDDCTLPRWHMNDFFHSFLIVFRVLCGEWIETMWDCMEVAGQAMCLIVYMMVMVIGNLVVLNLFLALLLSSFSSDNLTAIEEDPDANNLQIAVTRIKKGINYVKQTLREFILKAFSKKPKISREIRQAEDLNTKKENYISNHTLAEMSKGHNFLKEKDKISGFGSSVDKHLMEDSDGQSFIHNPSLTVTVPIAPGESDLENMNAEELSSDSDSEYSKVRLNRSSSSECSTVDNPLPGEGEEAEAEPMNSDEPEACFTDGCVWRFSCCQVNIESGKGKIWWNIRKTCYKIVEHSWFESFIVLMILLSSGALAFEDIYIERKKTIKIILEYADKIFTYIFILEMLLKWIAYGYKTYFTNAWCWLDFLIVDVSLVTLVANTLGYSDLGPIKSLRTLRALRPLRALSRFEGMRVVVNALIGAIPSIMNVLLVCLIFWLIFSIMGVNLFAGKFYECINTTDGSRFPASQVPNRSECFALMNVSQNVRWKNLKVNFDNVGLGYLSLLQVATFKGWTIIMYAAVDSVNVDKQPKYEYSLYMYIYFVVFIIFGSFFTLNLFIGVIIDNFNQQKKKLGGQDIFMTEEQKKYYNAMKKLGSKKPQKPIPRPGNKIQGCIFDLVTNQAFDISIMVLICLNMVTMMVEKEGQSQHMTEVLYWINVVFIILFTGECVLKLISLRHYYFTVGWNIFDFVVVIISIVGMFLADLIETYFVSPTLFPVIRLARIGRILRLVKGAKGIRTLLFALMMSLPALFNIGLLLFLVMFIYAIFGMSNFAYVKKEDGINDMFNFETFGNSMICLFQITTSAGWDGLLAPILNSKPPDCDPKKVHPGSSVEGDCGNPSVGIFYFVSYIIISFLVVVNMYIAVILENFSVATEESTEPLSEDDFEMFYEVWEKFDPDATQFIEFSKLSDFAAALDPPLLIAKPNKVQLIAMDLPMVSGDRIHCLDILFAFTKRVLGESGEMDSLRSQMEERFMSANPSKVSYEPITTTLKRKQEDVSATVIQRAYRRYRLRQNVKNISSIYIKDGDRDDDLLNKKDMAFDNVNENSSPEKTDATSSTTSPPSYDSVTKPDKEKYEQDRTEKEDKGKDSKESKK
T1 sequence (Q07699 19-218 partner): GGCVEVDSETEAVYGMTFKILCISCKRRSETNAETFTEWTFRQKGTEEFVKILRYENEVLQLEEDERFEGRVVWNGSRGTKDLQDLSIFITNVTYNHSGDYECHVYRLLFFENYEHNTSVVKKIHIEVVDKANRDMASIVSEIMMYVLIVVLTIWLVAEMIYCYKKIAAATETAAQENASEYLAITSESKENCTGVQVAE
T1 sequence (O60939 30-215 partner): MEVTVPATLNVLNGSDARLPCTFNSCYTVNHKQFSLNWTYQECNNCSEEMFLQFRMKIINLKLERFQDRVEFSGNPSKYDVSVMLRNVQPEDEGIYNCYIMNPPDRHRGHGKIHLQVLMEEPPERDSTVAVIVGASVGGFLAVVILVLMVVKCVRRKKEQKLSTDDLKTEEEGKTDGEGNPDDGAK
Experimental: (§1) HEK293 cells and ND7/23 cells were grown under standard tissue culture conditions (5% CO2 and 37°C) in DMEM supplemented with 10% FBS, 1% penicillin and 1% streptomycin. Using Invitrogen Lipofectamine 2000, human Nav1.7 R1599P (rpNav1.7) and the mutant constructs were transiently co-transfected with Navβ1 and Navβ2 into HEK293 cells. The constructs human Nav1.8 and mutants were transiently co-transfected with FHF2B or FHF4A into ND7/23 cells. The lipofectamine-DNA mixture was added to the cell culture medium and left for 3 h after which the cells were washed with fresh medium. Cells with green fluorescent protein fluorescence were selected for whole-cell patch-clamp recordings 36–72 h after transfection.
(§2) Whole-cell voltage-clamp recordings were performed at room temperature (~21°C) using an EPC-10 amplifier and the Pulse program (HEKA Electronics). Fire-polished electrodes (0.7–1.0 MΩ) were fabricated from 1.7 mm capillary glass using a P-97 puller (Sutter Instruments), and the tips were coated with sticky wax (KerrLab) to reduce electrode capacitance and enable increased series resistance compensation. The pipette solution contained (in mM) 140 CsF, 1.1 EGTA, 10 NaCl, and 10 HEPES, pH 7.3. The bathing solution was (in mM) 130 mM NaCl, 30 mM TEA chloride, 1 mM MgCl2, 3 mM KCl, 1 mM CaCl2, 10 mM HEPES, and 10 mM d-glucose, pH 7.3 (adjusted with NaOH). […] The offset potential was zeroed before contacting the cell. After establishing the whole-cell recording configuration, the resting potential was held at −120 or −100 mV for 5 min to allow adequate equilibration between the micropipette solution and the cell interior. […]
(§3) Families of sodium currents were induced by 50-ms depolarizing steps to various potentials ranging from −120 (or −100) to +40 mV in 5-mV increments. The conductance was calculated using the equation G(Nav) = I/(V - Vrev) in which I, V, and Vrev represent inward current value, membrane potential, and reversal potential, respectively. […]

[3] = tested on: human Nav1.8; assay: Gating properties (steady-state activation, inactivation, INaP), Nav1.8; format: cell-based; settings: Nav1.8 + FHF2B, ND7/23; 1 mM; held at −100 mV; scramble n = 8, FHF4A peptide n = 10; p > 0.05
Experimental: as §1
(§4) Whole-cell voltage-clamp recordings were performed at room temperature (~21°C) using an EPC-10 amplifier and the Pulse program (HEKA Electronics). Fire-polished electrodes (0.7–1.0 MΩ) were fabricated from 1.7 mm capillary glass using a P-97 puller (Sutter Instruments), and the tips were coated with sticky wax (KerrLab) to reduce electrode capacitance and enable increased series resistance compensation. The pipette solution contained (in mM) 140 CsF, 1.1 EGTA, 10 NaCl, and 10 HEPES, pH 7.3. The bathing solution was (in mM) 130 mM NaCl, 30 mM TEA chloride, 1 mM MgCl2, 3 mM KCl, 1 mM CaCl2, 10 mM HEPES, and 10 mM d-glucose, pH 7.3 (adjusted with NaOH). […] The offset potential was zeroed before contacting the cell. After establishing the whole-cell recording configuration, the resting potential was held at −120 or −100 mV for 5 min to allow adequate equilibration between the micropipette solution and the cell interior. Linear leak subtraction, based on resistance estimates from four to five hyperpolarizing pulses applied before the depolarizing test potential, was used for all voltage clamp recordings. Membrane currents were usually filtered at 5 kHz and sampled at 20 kHz. […] Voltage errors were minimized using 80–95% series resistance compensation, and the capacitance artifact was canceled using the computer-controlled circuitry of the patch clamp amplifier. […] The concentration-dependent curves were fitted to a hill equation: Y = Bottom + (Top-Bottom)/(1 + 10^((LogEC50-X)*HillSlope)).
Families of sodium currents were induced by 50-ms depolarizing steps to various potentials ranging from −120 (or −100) to +40 mV in 5-mV increments. The conductance was calculated using the equation G(Nav) = I/(V - Vrev) in which I, V, and Vrev represent inward current value, membrane potential, and reversal potential, respectively.
Voltage dependence of steady-state inactivation was estimated using a standard double pulse protocol in which sodium currents were induced by a 50-ms depolarizing potential of 0 mV following a 500-ms prepulse at potentials that ranged from −150 to +10 mV with a 10-mV increment. Currents were plotted as a fraction of the maximum peak current. To obtain the midpoint voltages (V1/2) and slope factor (k), the curves of both steady-state activation and inactivation were fitted to a Boltzmann function.

[4] = tested on: human Nav1.8; assay: INaR, Nav1.8 co-expressed with FHF2B; format: cell-based; settings: Nav1.8 + FHF2B, ND7/23, 1 mM
Experimental: as §1, §4
(§5) INaR: INaR was elicited by repolarizing voltage steps from +20 to −80 mV for 100 ms (or 200 ms) in −5 mV increments, following a 20-ms depolarizing potential of +30 mV. […] The relative INaR in Nav1.7 and Nav1.8 was calculated by normalizing to the peak transient current elicited at −10 or 0 mV.

[5] = tested on: human Nav1.7; assay: Steady-state activation and inactivation, WT Nav1.7; format: cell-based; settings: HEK293, 100 μM intracellular, mean ± S.E., scramble n = 6, Navβ4 peptide n = 8
Experimental: as §1
Whole-cell voltage-clamp recordings were performed at room temperature (~21°C) using an EPC-10 amplifier and the Pulse program (HEKA Electronics). […]
as §3

[6] = molecular target: T1, human Nav1.7 R1599P (rpNav1.7); assay: Long-term inactivation of rpNav1.7; format: cell-based; settings: rpNav1.7, HEK293; 1 mM; six 16-ms pulses of −10 mV from −100 mV, 40-ms interpulse; scramble n = 6, FHF4A peptide n = 5; p < 0.0001
[7] = molecular target: T1, human Nav1.7 R1599P (rpNav1.7); assay: Resurgent current (INaR), whole-cell patch clamp, rpNav1.7; format: cell-based
Experimental: as §1, §2, §5

[8] = tested on: Purkinje neurons; settings: ref White et al., 2019, cited from earlier work
Source text: Next, we investigated if FHF4A, another INaR mediator reported recently ([White et al., 2019]; [Xiao et al., 2022]), shares the receptor site in VGSCs with Navβ4 peptide.

[9] = tested on: VGSC α-subunits; settings: heterologous co-expression with VGSC α-subunits; no reference given; cited from earlier work
Source text: FHF4A could still induce INaR from the F1710K channel (Figure 10A), but the average INaR amplitude at −20 mV is only 2.0% ± 0.2% of the peak transient current, which is less than one-half of the value from WT Nav1.8 (p < 0.0001). ... || The role of Navβ4 in INaR generation remains controversial. […] [Bant and Raman (2010)] reported that siRNA induced knock-down of Navβ4 reduced INaR generation in cultured cerebellar granular neurons by roughly 60%. […] Furthermore, Scn4b knock-out in mice has produced variable effects on INaR. In striatal neurons, Scn4b kno ...

CCN(CC)CC(=O)Nc1c(C)cccc1C [lidocaine]
effect of N395K on lidocaine inhibition of Nav1.7 [1]: attenuates the inhibitory effects of lidocaine on Nav1.7

KAREAQRASRAIEQLRSAKI [scrambled peptide, scrambled control peptide]
Inactivation (V1/2), rpNav1.7 ([2]; HEK293, 100 μM intracellular, mean ± S.E., scramble n = 5, Navβ4 peptide n = 9, p < 0.05): −75.0 ± 1.5 mV
Activation (V1/2), rpNav1.7 ([2]; HEK293, 100 μM intracellular, mean ± S.E., scramble n = 6, Navβ4 peptide n = 9, p < 0.01): −27.0 ± 1.9 mV
V1/2 (activation), Nav1.8, Figure 6 [3]: −10.0 ± 2.4 mV
V1/2 (inactivation), Nav1.8, Figure 6 [3]: −44.5 ± 2.1 mV
INaR with scrambled peptide, Nav1.8 [4]: failed to produce INaR
V1/2(activation), WT Nav1.7 ([5]; p < 0.01): −29.3 ± 1.6 mV
V1/2(inactivation), WT Nav1.7 ([5]; p < 0.05): −79.7 ± 1.7 mV
fraction of the current elicited at the 6th pulse [6]: 0.87 ± 0.08
INaR elicited with scrambled peptide ([7]; Nav1.7 and rpNav1.7 (Figures 1A,B), HEK293, 100 μM intracellular): no INaR was elicited

KKLITFILKKTREK [Navβ4 peptide]
INaP, rpNav1.7 ([2]; end of 50-ms pulse of −10 mV, normalized to peak transient current, 100 μM Navβ4 peptide, n = 9): 7.1% ± 3.0% and 7.1 ± 3.0 (9) %
average INaR amplitude elicited at −30 mV ([7]; rpNav1.7 + Navβ1 + Navβ2, HEK293, 100 μM peptide intracellular, measured after 3.0 ms into repolarization, ~21°C, mean ± S.E., n = 14): 15.7% ± 1.1%
EC50 ([7]; rpNav1.7, HEK293, Hill equation, peptide in intracellular solution (10 μM – 1 mM), each data point from 3 to 14 cells, read-out: EC50 for INaR generation): 61.8 ± 1.3 µM

peptide derived from the sequence FHF4A K50 – R63: a peptide derived from the sequence FHF4A K50 – R63 (KVRIFGLKKRRLRR; FHF4A; UniProt Q92915 50-63, looked up, fragment)
INaR in Purkinje neurons [8]: INaR was also reconstituted in Purkinje neurons
INaR in Purkinje neurons ([8]; listed as short peptide derived from this segment): induce robust Nav1.6 INaR in Purkinje neurons

substitution of the 7^th residue leucine with serine: FHF4A K50 – R63 peptide with substitution of the 7th residue leucine with serine (KVRIFGSKKRRLRR; FHF4A peptide K50-R63; UniProt Q92915 50-63, looked up, variant L56S)
INaR in Purkinje neurons [8]: no longer induce INaR

B1: full-length Navβ4: full-length Navβ4 sodium channel auxiliary subunit (protein, UniProt Q8IWT1 1-228, looked up)
chain: MPGAGDGGKAPARWLGTGLLGLFLLPVTLSLEVSVGKATDIYAVNGTEILLPCTFSSCFGFEDLHFRWTYNSSDAFKILIEGTVKNEKSDPKVTLKDDDRITLVGSTKEKMNNISIVLRDLEFSDTGKYTCHVKNPKENNLQHHATIFLQVVDRLEEVDNTVTLIILAVVGGVIGLLILILLIKKLIIFILKKTREKKKECLVSSSGNDNTENGLPGSKAEEKPPSKV
modifications: full-length
notes: full-length Navβ4 sodium channel auxiliary subunit
INaR with full-length Navβ4 [9]: fails to reconstitute INaR in heterologous systems
